The subject of one data set is EOL-1 and A-204 cells. Kind of data set: Cell viability/proliferation, ranges stated over EOL-1 and A-204. The data set is classed as cell-based. The note with it: Homo sapiens; EOL-1 and A-204, text; read-out: EC50 (cell viability), range. Here is the method: (§1) A-204 cells (1 × 10^3) were seeded per well of 384-well plates. After overnight incubation, compounds were added to the cells at logarithmic dose series using the HP digital dispenser D300 (Tecan), normalizing for added DMSO. 1 day and 8 days after seeding cellular ATP content was measured using CellTiterGlo (Promega). Measurements after 8 days were divided by the measurement after 1 day (i.e., the T0 plate) to derive fold proliferation. Data were analyzed with GraphPad Prism software to obtain EC50 values.

Another data set deals with EOL-1 cells. Kind of data set: Cell viability/proliferation (cellular ATP, CellTiterGlo) in EOL-1. The data set is classed as cell-based. The note with it: Homo sapiens, EOL1; EOL-1, text; read-out: EC50 (cytotoxicity, cell viability).
The subject of another data set is A-204 cells. Kind of data set: Cell viability/proliferation (cellular ATP, CellTiterGlo) in A-204. The data set is classed as cell-based. The note with it: Homo sapiens, A204; A-204 (printed A-402); read-out: EC50 (cytotoxicity, cell viability). Here is the method: as §1
A short description of data set [1]: Parallel Artificial Membrane Permeability Assay (PAMPA). The data set is classed as in vitro ADME. As for the experimental part:
Test compound (10 µM) was incubated in pre-warmed plasma at 37 ᵒC (that is buffered to pH 7.4 in ratio of 70:30 plasma to buffer). Immediately, at time zero, then at 30, 60, 120, and 180 min, a 50 µL aliquot of the incubation mixture was removed and mixed with 200 µL acetonitrile containing Donepezil as the internal standard (50 ng/ml) to stop the reaction. The samples were centrifuged to sediment the precipitated protein and the plates then sealed prior to UPLC-MS/MS analysis using a Xevo TQ-S Micro (Waters Corporation, USA).
XLfit (IDBS, UK) was used to calculate the exponential decay and consequently the rate constant (k) from the ratio of peak area of test compound to internal standard at each time point. The half-life was calculated for each test compound from the rate by using the […]
Parallel Artificial Membrane Permeability Assay (PAMPA)
PAMPA was performed using a 96-well pre-coated BD Gentest™ PAMPA plate (BD Biosciences, U.K.). Each well was divided into two chambers; donor and acceptor, separated by a lipid-oil-lipid tri-layer constructed in a porous filter. The effective permeability, Pe, of the compound was measured at pH 7.4. Stock solutions (5 mM) of the compound were prepared in DMSO. The compound was then further diluted to 10 µM in phosphate buffered […]
saline at pH 7.4. […] The compound […]
dissolved in phosphate buffered saline was then added to the donor side of the membrane and phosphate buffered saline without compound was added to the acceptor side. The PAMPA plate was left at room temperature for 5 h. After which time, an aliquot (100 µL) was then […]
(§2) removed from both acceptor and donor compartments and mixed with acetonitrile (80 µL) containing an internal standard. The samples were centrifuged (10 min, 5 °C, 3270 g) to sediment precipitated protein and sealed prior to UPLC-MS/MS analysis using a Xevo TQ-S Micro (Waters Corp, USA). Pe was calculated as shown in the below equation: […]
(§3) CA(t) = peak area of compound present in acceptor well at time t = 18000 s Cequi = [CD(t) x VD + CA(t) x VA] / (VD + VA)
(§4) VA = acceptor well volume
(§5) CD(t) = peak area of compound present in donor well at time t = 18000 s Recovery of compound from donor and acceptor wells was calculated and data was only accepted when recovery exceeded 70%.
Using a fast gradient, reverse-phase HPLC method to determine the chromatographic hydrophobicity index (CHI) was determined as described by Camurri and Zaramella (ref. 3) and Valko et al. (ref. 4). Briefly, by plotting the retention time of a set of reference

Data set [2] is described as follows: CHI LogD determination (reverse-phase HPLC). The data set is classed as physicochemical. The note with it: reversed-phase HPLC (ACE Excel 3 SuperC18 column), pH 7.4; read-out: CHI LogD (pH7.4). As for the experimental part:
as §2, §3, §4, §5
Using a fast gradient, reverse-phase HPLC method to determine the chromatographic hydrophobicity index (CHI) was determined as described by Camurri and Zaramella (ref. 3) and Valko et al. (ref. 4). Briefly, by plotting the retention time of a set of reference […]
compounds against known CHI values. The CHI value of test compounds was then calculated according to their retention time.
Test compounds were prepared as 0.25 mM solutions in 50:50 acetonitrile:water and analysed by reversed-phase HPLC-UV (wavelength 254 nm) using a ACE Excel 3 SuperC18, 3 µm, 50 x 2.1 mm column with a gradient of aqueous phase (10 mM ammonium acetate, pH 7.4) and mobile phase (acetonitrile).
Intrinsic clearance (Cli) experiments
Test compound (0.5 µM) was incubated with female CD1 mouse or human (mixed gender) liver microsomes (Xenotech LLCTM; 0.5 mg/mL 50mM potassium phosphate buffer, pH7.4) and the reaction initiated with addition of excess NADPH (8 mg/mL 50 mM potassium phosphate buffer, pH7.4). Immediately, at time zero, then at 3, 6, 9, 15 and 30 minutes an aliquot (50 µL) of the incubation mixture was removed and mixed with acetonitrile (100 µL) to stop the reaction. Internal standard was added to all samples, the samples centrifuged to sediment precipitated protein and the plates then sealed prior to […] analysis using […]
a Xevo TQ-S Micro (Waters corporation, USA).
XLfit (IDBS, UK) was used to calculate the exponential decay and consequently the rate constant (k) from the ratio of peak area of test compound to internal standard at each timepoint. The rate of intrinsic clearance (CLi) of each test compound was then calculated using the following calculation:
CLi(mL/min/g liver) = k x V x Microsomal protein yield
Where V (mL/mg protein) is the incubation volume/mg protein added and microsomal protein yield is taken as 52.5 mg protein/ g liver. Verapamil (0.5 µM) was used as a positive control to confirm acceptable assay performance.

On to `COc1cc(-c2cn(C)c(=O)c3cnccc23)cc(OC)c1CN(C)C` [Compound 1a], for which the EC50 with EOL-1 and A-204 cells lay within 90 to 340 nM.
Regarding `COc1cc(-c2cn(C)c(=O)c3cnccc23)c(OC)cc1CN(C)C` [Compound 1b], in the data set with EOL-1 and A-204 cells, the EC50 was in the range of 370 to 3550 nM.
As to `COc1cc(-c2cn(C)c(=O)c3cnccc23)cc(OC)c1CN(C)CC(=O)NCCOCCOCCNc1cccc2c1C(=O)N(C1CCC(=O)NC1=O)C2=O` (centres unmarked) [Compound 21, reference compound], the EC50 with EOL-1 cells was 5 nM; in the data set with A-204 cells, 90 nM.
The compound `COc1cc(-c2cn(C)c(=O)c3cnccc23)cc(OC)c1CN1CCN(CCOCCOc2cc(-c3scnc3C)ccc2CNC(=O)[C@@H]2C[C@@H](O)CN2C(=O)[C@@H](NC(=O)C2(F)CC2)C(C)(C)C)CC1` [Compound 46, (2S,4R)-N-(2-(2-(2-(4-(2,6-Dimethoxy-4-(2-methyl-1-oxo-1,2-dihydro-2,7-naphthyridin-4-yl)benzyl)piperazin-1-yl)ethoxy)ethoxy)-4-(4-methylthiazol-5-yl)benzyl)-1-((S)-2-(1-fluorocyclopropane-1-carboxamido)-3,3-dimethylbutanoyl)-4-hydroxypyrrolidine-2-carboxamide] registered a recovery at 5 h, 10 µM in data set [1] (PAMPA, pH 7.4) of 88%. In addition, the Papp at 5 h, 10 µM in data set [1] (PAMPA, pH 7.4, 5 h, read-out: PAMPA pH 7.4 Pe) was 0.002 ×10⁻⁶ cm/s. Moreover, in data set [1] (pH 7.4, permeability class), the “PAMPA pH 7.4 HIGH/MED/LOW” value was “LOW and low cell permeability”. In addition, the chromatographic logD in data set [2] amounted to 2.

Source of the values: PMC6348446 (Journal of Medicinal Chemistry, 2018).
